Some test systems named below: NCI/ADR-RES ovarian; SNB-19 CNS; SK-MEL-28 melanoma; PC-3 prostate; A498 renal; SF-295 CNS; OVCAR-3 ovarian; HCC-2998 colon; OVCAR-5 ovarian; MDA-MB-435.
Holding throughout (assay): DTP human tumour cell line panel, 48 h

Several values for one entry are separate records, joined by “and”; a condition that tells them apart may be missing. Identical values can stand only once.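 Each compound was tested at five concentrations against cells in 96-well plates for 48 hours. At the GI50, growth is halved. At the TGI there is no net growth.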

What is called GI50 is the concentration at which growth is held to half of that of the control. In general, TGI refers to the concentration at which net growth stops. Low readings indicate greater sensitivity of the cells, high ones lower sensitivity of the cells.

Turning to `COc1ccc([C@H]2O[C@@H](CO)C[C@]2(O)c2ccc(OC)cc2)cc1`, the GI50 in the experiment with NCI/ADR-RES ovarian, in the experiment with SNB-19 CNS, in the experiment with SK-MEL-28 melanoma, in the experiment with PC-3 prostate, with A498 renal and with SF-295 CNS was over 100 µM each time. The GI50 in the experiment with OVCAR-3 ovarian, with HCC-2998 colon, in the experiment with OVCAR-5 ovarian and with MDA-MB-435 was over 100 µM throughout. Further, the concentration for total growth inhibition (TGI) in the experiment on NCI/ADR-RES ovarian, with SNB-19 CNS, with SK-MEL-28 melanoma, with PC-3 prostate, with A498 renal and with SF-295 CNS was over 100 µM each time. Further, the TGI in the experiment with OVCAR-3 ovarian, in the experiment on HCC-2998 colon, in the experiment on OVCAR-5 ovarian and in the experiment with MDA-MB-435 was over 100 µM throughout.

In the case of `Cn1c(=O)c2[nH]c(COc3ccc(C(C)(C)C)cc3)nc2n(C)c1=O`, the GI50 with NCI/ADR-RES ovarian was 8.04 µM; with SNB-19 CNS it was 82.3 µM; with SK-MEL-28 melanoma, 28.8 µM; with PC-3 prostate, 6.11 µM; with A498 renal, 4.94 µM; with SF-295 CNS, 4.03 µM. Further, the GI50 in the experiment on OVCAR-3 ovarian was 12.3 µM; with HCC-2998 colon it was 16.8 µM; in the experiment on OVCAR-5 ovarian, 24.2 µM; in the experiment with MDA-MB-435, 4.09 µM. For the same compound, the TGI with NCI/ADR-RES ovarian is 60.6 µM; in the experiment on SNB-19 CNS, over 100 µM; in the experiment with SK-MEL-28 melanoma, over 100 µM; in the experiment with PC-3 prostate, 53.3 µM; with A498 renal, 60.1 µM; in the experiment with SF-295 CNS, over 100 µM. Also, the total growth inhibition concentration (TGI) was 33.6 µM in the experiment on OVCAR-3 ovarian, over 100 µM in the experiment on HCC-2998 colon, over 100 µM in the experiment with OVCAR-5 ovarian and 35.4 µM with MDA-MB-435.

As for `COc1ccc(/C=C\c2cc(OC)c(OC)c(OC)c2)c(NS(=O)(=O)c2ccc(C)cc2)c1O`, the concentration for 50% growth inhibition (GI50) in the experiment with NCI/ADR-RES ovarian is 0.169 µM; in the experiment on SNB-19 CNS, 0.0549 µM; in the experiment with SK-MEL-28 melanoma, 0.602 µM; with PC-3 prostate, 0.04 µM; with A498 renal, 0.022 µM; in the experiment on SF-295 CNS, 0.0509 µM. The GI50 in the experiment on OVCAR-3 ovarian was 0.03 µM; with HCC-2998 colon, 0.0904 µM; in the experiment on OVCAR-5 ovarian it was 0.15 µM; with MDA-MB-435 it was 0.0208 µM. The TGI in the experiment on NCI/ADR-RES ovarian was 14.7 µM; with SNB-19 CNS it was over 100 µM; in the experiment with SK-MEL-28 melanoma, over 96.2 µM; in the experiment on PC-3 prostate it was over 100 µM; with A498 renal, 0.0805 µM; in the experiment with OVCAR-3 ovarian, 1.65 µM. Besides, the TGI is 10.9 µM with HCC-2998 colon, over 100 µM with OVCAR-5 ovarian and 0.0621 µM in the experiment on MDA-MB-435.

Regarding `O=c1[nH]c(-c2ccc(C(F)(F)F)cc2)nc2c1CSCC2`, the GI50 is 35.8 µM in the experiment on NCI/ADR-RES ovarian; 47.3 µM in the experiment with SNB-19 CNS; 80.3 µM in the experiment with SK-MEL-28 melanoma; over 77.3 µM in the experiment with PC-3 prostate; 22.9 µM in the experiment with A498 renal; 52.7 µM in the experiment on SF-295 CNS. The GI50 in the experiment with OVCAR-3 ovarian was 27 µM; in the experiment with HCC-2998 colon it was over 81.2 µM; in the experiment on OVCAR-5 ovarian it was 79.9 µM; with MDA-MB-435 it was over 100 µM. The concentration for total growth inhibition (TGI) in the experiment with NCI/ADR-RES ovarian was over 100 µM; with SNB-19 CNS, over 100 µM; in the experiment on SK-MEL-28 melanoma it was over 100 µM; in the experiment on PC-3 prostate, over 100 µM; with A498 renal, 97.3 µM; in the experiment with SF-295 CNS, over 100 µM. The TGI in the experiment with OVCAR-3 ovarian, in the experiment with HCC-2998 colon, in the experiment on OVCAR-5 ovarian and with MDA-MB-435 was over 100 µM each time.

With `Cc1nc(NC(=O)N2CCC[C@H]2C(N)=O)sc1-c1ccnc(C(C)(C)C(F)(F)F)c1`, the GI50 in the experiment with NCI/ADR-RES ovarian was 14.6 µM and > 10 µM; in the experiment with SNB-19 CNS, 8.6 µM and > 10 µM; in the experiment with SK-MEL-28 melanoma, 4.72 µM and 6.71 µM; in the experiment on PC-3 prostate it was 2.19 µM and 3.61 µM; in the experiment on A498 renal, 1.34 µM and 2.07 µM; in the experiment with SF-295 CNS it was 2.79 µM and 4.1 µM. Also, the GI50 in the experiment on OVCAR-3 ovarian was 4.16 µM and 8 µM; with HCC-2998 colon it was 12.8 µM and 6.71 µM; in the experiment on OVCAR-5 ovarian, 0.776 µM and 1.02 µM; in the experiment with MDA-MB-435 it was 7.33 µM and > 10 µM. Further, the TGI is 85.8 µM and > 10 µM in the experiment with NCI/ADR-RES ovarian; 66.2 µM and > 10 µM in the experiment on SNB-19 CNS; over 61.6 µM with SK-MEL-28 melanoma; 25.4 µM and > 10 µM in the experiment with PC-3 prostate; 5.62 µM and 9.99 µM with A498 renal; 16 µM and > 10 µM with SF-295 CNS. Moreover, the concentration for total growth inhibition (TGI) with OVCAR-3 ovarian is 30.7 µM and > 10 µM; in the experiment with HCC-2998 colon it was 49.9 µM and > 10 µM; in the experiment with OVCAR-5 ovarian, 57.4 µM and > 10 µM; in the experiment on MDA-MB-435 it was 51.6 µM and > 10 µM.

As to `C#Cc1ccc(NC(=O)c2ccc(/C=C/C(=O)c3nccn3C)cc2)cc1`, the GI50 with NCI/ADR-RES ovarian is 0.77 µM; in the experiment on SNB-19 CNS, 0.512 µM; in the experiment on SK-MEL-28 melanoma, 0.521 µM; in the experiment on PC-3 prostate it was 0.476 µM; in the experiment on A498 renal, 0.512 µM; in the experiment with SF-295 CNS it was 0.537 µM. In addition, the concentration for 50% growth inhibition (GI50) was 0.416 µM with OVCAR-3 ovarian, 0.434 µM with HCC-2998 colon, 0.488 µM with OVCAR-5 ovarian and 0.58 µM in the experiment on MDA-MB-435. For the same compound, the total growth inhibition concentration (TGI) in the experiment with NCI/ADR-RES ovarian worked out at 25 µM; with SNB-19 CNS, 1.35 µM; in the experiment on SK-MEL-28 melanoma, 1.24 µM; in the experiment with PC-3 prostate, 1.53 µM; in the experiment on A498 renal it was 1.39 µM; in the experiment with SF-295 CNS, 1.25 µM. For the same compound, the concentration for total growth inhibition (TGI) in the experiment on OVCAR-3 ovarian came out at 0.792 µM; in the experiment with HCC-2998 colon, 0.804 µM; with OVCAR-5 ovarian, 1.19 µM; in the experiment on MDA-MB-435, 1.5 µM.

Consider `O=C(/C=C/c1ccco1)Nc1ncc(Cc2ccc(F)cc2)s1`, for which the 50% growth inhibitory concentration (GI50) was 0.0445 µM with NCI/ADR-RES ovarian; 0.112 µM in the experiment with SNB-19 CNS; 3.5 µM in the experiment on SK-MEL-28 melanoma; 0.0571 µM in the experiment with PC-3 prostate; 0.027 µM in the experiment with A498 renal; 0.0709 µM in the experiment on SF-295 CNS. Besides, the GI50 with OVCAR-3 ovarian was 0.0336 µM; in the experiment on HCC-2998 colon it was 0.224 µM; in the experiment with OVCAR-5 ovarian, 0.244 µM; in the experiment on MDA-MB-435 it was 0.0219 µM. For the same compound, the TGI in the experiment on NCI/ADR-RES ovarian is 4.02 µM; in the experiment with SNB-19 CNS, over 100 µM; with SK-MEL-28 melanoma, over 100 µM; with PC-3 prostate, over 100 µM; in the experiment with A498 renal it was 0.0975 µM; in the experiment with SF-295 CNS it was over 100 µM. For the same compound, the TGI in the experiment with OVCAR-3 ovarian is 0.141 µM; in the experiment with HCC-2998 colon, over 100 µM; in the experiment with OVCAR-5 ovarian it was over 100 µM; in the experiment on MDA-MB-435, 0.0558 µM.
